Data taken from ChEMBL document CHEMBL3739261, “Synthesis and antibacterial activity evaluation of C-5 side chain modified analogues of FYL-66, a potential agent against methicillin-resistant Staphylococcus aureus” (Medchemcomm, 2015).
In brackets after ≈: the same amount, converted by molar mass.

Experiments:
[1] = Cytotoxicity against HEK293A cells after 48 hrs by MTT assay; assay type: cell-based; conditions: Homo sapiens, HEK293-A
Escherichia coli = test: Antibacterial activity against Escherichia coli ATCC 25922 incubated for 18 hrs by broth microdilution method; assay type: functional; conditions: ATCC 25922, 18 h
Staphylococcus aureus [2] = test: Antibacterial activity against methicillin-resistant Staphylococcus aureus ATCC 43300 incubated for 18 hrs by broth microdilution method; assay type: functional; conditions: ATCC 43300, 18 h
[3] = Cytotoxicity against human L02 cells after 48 hrs by MTT assay; assay type: cell-based; conditions: L02, 48 h
Staphylococcus aureus [4] = test: Antibacterial activity against methicillin-susceptible Staphylococcus aureus ATCC 25923 incubated for 18 hrs by broth microdilution method; assay type: functional; conditions: ATCC 25923, 18 h
Staphylococcus aureus [5] = test: Antibacterial activity against methicillin-resistant Staphylococcus aureus ATCC 33591 incubated for 18 hrs by broth microdilution method; assay type: functional; conditions: ATCC 33591, 18 h
Staphylococcus aureus [6] = test: Antibacterial activity against methicillin-susceptible Staphylococcus aureus ATCC 29213 incubated for 18 hrs by broth microdilution method; assay type: functional; conditions: ATCC 29213, 18 h
[7] = Solubility of compound in distilled water after 24 hrs by HPLC analysis; assay type: physicochemical
Pseudomonas aeruginosa = test: Antibacterial activity against Pseudomonas aeruginosa ATCC 27853 incubated for 18 hrs by broth microdilution method; assay type: functional; conditions: ATCC 27853, 18 h
Staphylococcus aureus [8] = test: Antibacterial activity against methicillin-susceptible Staphylococcus aureus CMCC 2603 incubated for 18 hrs by broth microdilution method; assay type: functional; conditions: CMCC 2603, 18 h
[9] = Octanol/water partition coefficient, log P of the compound by HPLC assay; assay type: physicochemical
Staphylococcus aureus [10] = test: Antibacterial activity against methicillin-susceptible Staphylococcus aureus ATCC 6538 incubated for 18 hrs by broth microdilution method; assay type: functional; conditions: ATCC 6538, 18 h

Row | Structure (SMILES) | IC50 [1] | MIC (Escherichia coli) | MIC (Staphylococcus aureus [2]) | IC50 [3] | MIC (Staphylococcus aureus [4]) | MIC (Staphylococcus aureus [5]) | MIC (Staphylococcus aureus [6]) | solubility at 24 h [7] | MIC (Pseudomonas aeruginosa) | MIC (Staphylococcus aureus [8]) | logP [9] | MIC (Staphylococcus aureus [10])
1 | CN1CCN(C[C@H]2CN(c3ccc(-n4cc(-c5ccccn5)cn4)c(F)c3)C(=O)O2)CC1 | 70 µg/mL (≈ 160 µM) | > 32 µg/mL | > 32 µg/mL | 70 µg/mL (≈ 160 µM) | > 32 µg/mL | > 32 µg/mL | > 32 µg/mL | 1690 µM (≈ 738 µg/mL) | > 32 µg/mL | > 32 µg/mL | 2.2 | > 32 µg/mL
2 | O=C1O[C@@H](CNC(=O)C(F)(F)F)CN1c1ccc(-n2cc(-c3ccccn3)cn2)c(F)c1 | > 400 µg/mL | > 32 µg/mL | > 64 µg/mL | > 400 µg/mL | > 64 µg/mL | > 64 µg/mL | > 64 µg/mL | 114 µM (≈ 51 µg/mL) | > 32 µg/mL | > 64 µg/mL | ≥ 1.78 | > 64 µg/mL
3 | O=C1O[C@@H](CO)CN1c1ccc(-n2cc(-c3ccccn3)cn2)c(F)c1 | > 400 µg/mL |  |  | 59 µg/mL (≈ 167 µM) |  |  |  | 56.4 µM (≈ 20 µg/mL) |  |  | 1.67 | 
4 | O=C1O[C@@H](Cn2ccnn2)CN1c1ccc(-n2cc(-c3ccccn3)cn2)c(F)c1 | 225 µg/mL (≈ 555 µM) | > 32 µg/mL | 4 µg/mL (≈ 9.87 µM) | 49 µg/mL (≈ 121 µM) | 4 µg/mL (≈ 9.87 µM) | 4 µg/mL (≈ 9.87 µM) | 4 µg/mL (≈ 9.87 µM) | 247 µM (≈ 100 µg/mL) | > 32 µg/mL | 4 µg/mL (≈ 9.87 µM) | 2 | 4 µg/mL (≈ 9.87 µM)
5 | O=CNC[C@H]1CN(c2ccc(-n3cc(-c4ccccn4)cn3)c(F)c2)C(=O)O1 | > 400 µg/mL | > 32 µg/mL | 8 µg/mL (≈ 21 µM) | > 400 µg/mL | 8 µg/mL (≈ 21 µM) | 8 µg/mL (≈ 21 µM) | 8 µg/mL (≈ 21 µM) | 217 µM (≈ 82.8 µg/mL) | > 32 µg/mL | 8 µg/mL (≈ 21 µM) | 1.19 | 8 µg/mL (≈ 21 µM)
6 | O=C(OC[C@H]1CN(c2ccc(-n3cc(-c4ccccn4)cn3)c(F)c2)C(=O)O1)c1ccccc1 | > 400 µg/mL | > 32 µg/mL | > 32 µg/mL | > 400 µg/mL | > 32 µg/mL | > 32 µg/mL | > 32 µg/mL | ≤ 65.4 µM | > 32 µg/mL | > 32 µg/mL | 4.21 | > 32 µg/mL
7 | CN(CCO)C[C@H]1CN(c2ccc(-n3cc(-c4ccccn4)cn3)c(F)c2)C(=O)O1 | 367 µg/mL (≈ 892 µM) | > 32 µg/mL | > 32 µg/mL | 134 µg/mL (≈ 326 µM) | > 32 µg/mL | > 32 µg/mL | > 32 µg/mL | 669 µM (≈ 275 µg/mL) | > 32 µg/mL | > 32 µg/mL | 1.44 | > 32 µg/mL
8 | CNC(=O)[C@H]1CN(c2ccc(-n3cc(-c4ccccn4)cn3)c(F)c2)C(=O)O1 | 342 µg/mL (≈ 897 µM) | > 32 µg/mL | 16 µg/mL (≈ 42 µM) | 217 µg/mL (≈ 569 µM) | 8 µg/mL (≈ 21 µM) | 16 µg/mL (≈ 42 µM) | 8 µg/mL (≈ 21 µM) | 26.2 µM (≈ 9.99 µg/mL) | > 32 µg/mL | 8 µg/mL (≈ 21 µM) | 1.39 | 8 µg/mL (≈ 21 µM)
9 | COC[C@H]1CN(c2ccc(-n3cc(-c4ccccn4)cn3)c(F)c2)C(=O)O1 | > 400 µg/mL | > 32 µg/mL | > 32 µg/mL | > 400 µg/mL | > 32 µg/mL | > 32 µg/mL | > 32 µg/mL | 36.2 µM (≈ 13.3 µg/mL) | > 32 µg/mL | > 32 µg/mL | 2.18 | > 32 µg/mL
10 | CCN1CCN(C[C@H]2CN(c3ccc(-n4cc(-c5ccccn5)cn4)c(F)c3)C(=O)O2)CC1 | 99 µg/mL (≈ 220 µM) | > 32 µg/mL | > 32 µg/mL | 99 µg/mL (≈ 220 µM) | > 32 µg/mL | > 32 µg/mL | > 32 µg/mL | 706 µM (≈ 318 µg/mL) | > 32 µg/mL | > 32 µg/mL | 2.19 | > 32 µg/mL
11 | O=C1O[C@@H](CN2CCCCC2)CN1c1ccc(-n2cc(-c3ccccn3)cn2)c(F)c1 | > 400 µg/mL | > 32 µg/mL | 32 µg/mL (≈ 75.9 µM) | > 400 µg/mL | 32 µg/mL (≈ 75.9 µM) | 32 µg/mL (≈ 75.9 µM) | 32 µg/mL (≈ 75.9 µM) | 219 µM (≈ 92.4 µg/mL) | > 32 µg/mL | > 32 µg/mL | 3.1 | 32 µg/mL (≈ 75.9 µM)
12 | NC(=O)[C@H]1CN(c2ccc(-n3cc(-c4ccccn4)cn3)c(F)c2)C(=O)O1 | 152 µg/mL (≈ 414 µM) | > 32 µg/mL | 16 µg/mL (≈ 43.6 µM) | 119 µg/mL (≈ 324 µM) | 16 µg/mL (≈ 43.6 µM) | 16 µg/mL (≈ 43.6 µM) | 16 µg/mL (≈ 43.6 µM) | 27.2 µM (≈ 9.99 µg/mL) | > 32 µg/mL | 16 µg/mL (≈ 43.6 µM) | 1.59 | 16 µg/mL (≈ 43.6 µM)
13 | O=C(CF)NC[C@H]1CN(c2ccc(-n3cc(-c4ccccn4)cn3)c(F)c2)C(=O)O1 | > 400 µg/mL | > 32 µg/mL | 4 µg/mL (≈ 9.68 µM) | 106 µg/mL (≈ 256 µM) | 4 µg/mL (≈ 9.68 µM) | 4 µg/mL (≈ 9.68 µM) | 4 µg/mL (≈ 9.68 µM) | 61.8 µM (≈ 25.5 µg/mL) | > 32 µg/mL | 4 µg/mL (≈ 9.68 µM) | 1.29 | 4 µg/mL (≈ 9.68 µM)
14 | CCC(=O)NC[C@H]1CN(c2ccc(-n3cc(-c4ccccn4)cn3)c(F)c2)C(=O)O1 | 389 µg/mL (≈ 950 µM) | > 32 µg/mL | 4 µg/mL (≈ 9.77 µM) | 204 µg/mL (≈ 498 µM) | 4 µg/mL (≈ 9.77 µM) | 4 µg/mL (≈ 9.77 µM) | 4 µg/mL (≈ 9.77 µM) | 147 µM (≈ 60 µg/mL) | > 32 µg/mL | 4 µg/mL (≈ 9.77 µM) | 2.2 | 4 µg/mL (≈ 9.77 µM)
15 | COC(=O)NC[C@H]1CN(c2ccc(-n3cc(-c4ccccn4)cn3)c(F)c2)C(=O)O1 | 306 µg/mL (≈ 744 µM) | > 32 µg/mL | 4 µg/mL (≈ 9.72 µM) | 71 µg/mL (≈ 173 µM) | 4 µg/mL (≈ 9.72 µM) | 4 µg/mL (≈ 9.72 µM) | 4 µg/mL (≈ 9.72 µM) | 34.1 µM (≈ 14 µg/mL) | > 32 µg/mL | 4 µg/mL (≈ 9.72 µM) | 2.03 | 4 µg/mL (≈ 9.72 µM)
16 | O=C1O[C@@H](CN2CCN(CCO)CC2)CN1c1ccc(-n2cc(-c3ccccn3)cn2)c(F)c1 | > 400 µg/mL | > 32 µg/mL | > 32 µg/mL | > 400 µg/mL | > 32 µg/mL | > 32 µg/mL | > 32 µg/mL | 125 µM (≈ 58.1 µg/mL) | > 32 µg/mL | > 32 µg/mL | 1.09 | > 32 µg/mL
17 | O=C1O[C@@H](CN2CCOCC2)CN1c1ccc(-n2cc(-c3ccccn3)cn2)c(F)c1 | > 400 µg/mL | > 32 µg/mL | > 32 µg/mL | > 400 µg/mL | > 32 µg/mL | > 32 µg/mL | > 32 µg/mL | 109 µM (≈ 46.2 µg/mL) | > 32 µg/mL | > 32 µg/mL | 2 | > 32 µg/mL
